Laboratory results reported in patent US10695406B2, “Modulation of cellular stress using a B-cell oxidative and/or endoplasmic reticulum stress inhibitor and a targeting agent” (THE UNIVERSITY OF QUEENSLAND, priority 2014, dated 2020).

Tests used:
MIN6N8 cells [1] = test: Oxidative stress gene expression (RT2 Profiler PCR array, qRT-PCR) in MIN6N8 cells; type: cell-based, murine; conditions: non-stressed β-cells, 50 ng/mL
Protocol: Tissue samples were snap-frozen, and homogenized in TRIZOL using FASTPREP (MP BIOMEDICAL). RNA was isolated using High Pure RNA isolation kit (ROCHE), followed by cDNA synthesis using iScript (BIORAD) containing oligo(dT) and random hexamers. QPCR SYBR Green (INVITROGEN) was used for quantitative PCR using a HT7900 (ABI SYSTEMS). RoX was used as a normalization reference. Results were analyzed using SDS software (version 2.3) (ABI SYSTEMS). Primer efficiencies were determined using cDNA dilutions and primer dilutions for the genes of interest. All the data was normalized against the housekeeping gene, Gapdh, and expressed as a fold difference to the mean of relevant control samples.
cDNA from MIN6N8 cells treated with DMSO or 50 ng/mL IL-22 was compared using the oxidative stress RT^2 Profiler PCR Array (QIAGEN, PAMM-065Z). Data were analyzed using RT^2 Profiler PCR Array data analysis software.
Experiments to assess ER and/or oxidative stress, and methods of qRT-PCT and/or quantifying gene expression were performed as described for Example 1. Xbp1 splicing is assessed by qRT-PCR, with normalization versus Gapdh, and expression presented as fold of vehicle-treated control cells.

MIN6N8 cells [2] = test: ROS and NO (DHE, DCFDA, Griess assay) in MIN6N8 cells; type: cell-based, murine; conditions: for IL-23 induced oxidation of dihydroethidium (DHE): 50 ng/mL
Protocol: Activation of ATF6 was assessed as follows: the area in pixels per square millimeter co-stained ATF6 and DAPI (blue and green), and total ATF6 staining (green) was determined in 5 fields of view for each section (n=6 for each condition) using IMAGEJ software version 1.45s. Data are presented as the percentage of ATF6 and DAPI co-fluorescence to the total ATF6 fluorescence. Phosphorylation of Ser-51 of eiF2 α was determined by an AlphaScreen assay as per the manufacturer's instructions (PERKIN-ELMER). The Griess reagent method was performed according to the manufacturer's instructions (MOLECULAR PROBES) to assess the intracellular levels of nitric oxide. 5-(and -6-)-carboxy-2,7-dichlorofluorescein diacetate (DCFDA) assay was used to determine the intracellular levels of H2O2 as previously described (Sakon et al., 2003). Cells were treated with glucose or recombinant cytokines at the concentrations indicated in the figure legends, or with 5 μM thapsigargin (SIGMA-ALDRICH) or 10 μg/mL tunicamycin (SIGMA-ALDRICH) or 0.1-0.5 mM Palmitate (SIGMA-ALDRICH) for the times indicated in the legends. ROS was […] using the dihydroethidium (DHE) fluorescent cell-permeable probe (SIGMA-ALDRICH). MIN6N8 cells plated at 2×10^6/mL were incubated with 3 μM DHE and subsequently treated with DMSO (control), 50 ng/mL IL-23 for 30 minutes±[…] IL-22 at the same time or 30 minutes prior to IL-23.
To determine whether IL-22 was sufficient to prevent the increase in oxidative stress caused by known stressors, for example dihydroethidium (DHE), MIN6N8 cells were exposed to 50 ng/mL IL-23 for 30 minutes±50 ng/mL IL-22 at the same time, or 30 minutes prior to the IL-23 treatment. Superoxide generation was measured using DHE, which fluoresces red and binds DNA after oxidation. Time-lapse imaging (3 frames/min for 30 minutes) was utilized to determine the formation of superoxide (DHE-conversion/fluorescence) in cells after treatment. DAPI fluorescence was captured to visualize nuclei.
The concentration of ROS and NO in MIN6N8 cells treated with 16.6 mM glucose (high glucose), 10 μM H2O2, 0.5 mM palmitic acid or 50 ng/mL cytokines±50 ng/mL IL-22 either at the same time, or 30 minutes prior to the stressor treatment.

[3] = tested on: mice with high fat diet-induced obesity (HFDIO); test: HFDIO Experiment 2: 22 weeks of diet, IL-22 for the last 30 days; type: in vivo, C57BL/6 male mice; conditions: for Body weight (% original) / Fasting blood glucose / Fasting serum insulin concentration / Fasting serum proinsulin concentration: HFDIO Experiment 2, 22 weeks on HFD
From the text: All mice were housed in sterilized, filter-topped cages in a conventional clean facility. Six to eight week old C57BL/6 male mice were fed ad libitum on a high fat diet containing 46% of available energy as saturated fat, 34% carbohydrate, 20% protein (Speciality feeds, SF04-027). Or on normal chow containing less than 10% saturated fat (GOLDMIX, 126575). Cages of mice were randomly allocated to the experimental groups by random draw. Investigators were not blinded to treatment by there were no subjective assessments made.
Total insulin and proinsulin were measured in supernatant from islet cultures or in serum from mice using commercially obtained ELISA kits from MILLIPORE and MERCODIA, respectively. The molar insulin concentration was determined by subtracting the molar proinsulin concentration from molar total insulin, and then the serum proinsulin:insulin ratio was calculated.
From 18-22 weeks of diet, mice were treated (for 30 days) with 20 or 100 ng/g i.p. recombinant murine IL-22 twice weekly (R&D SYSTEMS) or 0.1 mg/mouse irrelevant isotype control antibody, sacrificed and sampled.
Fasted i.p. glucose tolerance tests (2 g/kg glucose) and insulin tolerance tests (0.25 U/kg insulin; Humalog, Lilly) were performed at the times indicated in the Figure Legends. […]

[4] = Clearance of IL-22 and IL-22 fusion proteins from serum; type: in vivo, C57BL/6 mice; conditions: after administration to mice
Protocol: Targeting to IL-22 to pancreas: Non-obese male C57BL/6 at 6-8 weeks of age. Each IL-22-GLP-1R ligand fusion protein or hIL-22 was administered i.p. at 256 ng/g of IL-22 and the molar equivalents for the individual fusion proteins (n=3 per regimen). IL-22-ScaB1 was administered at […]. Control mice received a PBS control i.p. injection only.
Serum concentrations of IL-22 and the IL-22-GLP-1R ligand fusion proteins were determined using a human IL-22 double-determinant ELISA (Biolegend; 434505) against a standard curve for the individual fusion proteins.

## IL-22: interleukin-22; recombinant murine IL-22 (R&D SYSTEMS) in the mouse experiments
MIN6N8 cells [1]
  expression of antioxidant genes Gpx5, Prdx5, Sod2 (also Ptgs1, Ptgs2, Cyba): upregulated the antioxidant genes
  expression of oxidative stress inducing genes Nos2, Hsp90ab1, Fth1: down-regulates three key oxidative stress inducing genes
MIN6N8 cells [2]; 30-minute pre-exposure
  IL-23 induced oxidation of dihydroethidium (DHE): completely prevented DHE oxidation
MIN6N8 cells [2]; concomitant exposure
  IL-23 induced oxidation of dihydroethidium (DHE): reduced the degree of oxidation and the number of cells affected
MIN6N8 cells [2]; unstressed cells
  basal NO production: decreased basal NO production
MIN6N8 cells [2]; β-cells exposed to inflammatory cytokines, FFA, tunicamycin or H2O2
  production/accumulation of ROS and NO: represses the production/accumulation of ROS and NO
[3]; 100 ng/g
  decrease of serum proinsulin: 97%
  islet ER stress (Xbp1 splicing): Xbp1 splicing indistinguishable from normal chow islets
  Body weight (% original): 189 ± 17 % original
  Fasting blood glucose: 10.6 ± 1.3 mmol/L
  Fasting serum insulin concentration: 0.5 ± 0.3 ng/mL
  Fasting serum proinsulin concentration: 4.7 ± 1.8 pmol/L
[3]; 20 or 100 ng/g, last 30 days of 22-week HFD
  body weight during treatment: progressively decreased
[3]; 20 ng/g
  Body weight (% original): 188 ± 13 % original
  Fasting blood glucose: 11.3 ± 0.5 mmol/L
  Fasting serum insulin concentration: 0.7 ± 0.4 ng/mL
  Fasting serum proinsulin concentration: 14.1 ± 2.9 pmol/L
[3]; both doses (20 and 100 ng/g)
  time until random fed blood glucose decreased to levels of normal chow fed mice: ≤ 7 days
[3]; day 16 of therapy
  insulin resistance in ITT: no or modest improvement in insulin resistance
[3]; day 25
  serum total insulin during IPGTT: complete suppression of fasting hyperinsulinemia and normalization of GSIS
[3]; day 25 of therapy
  glycemic control in IPGTT: glycemic control indistinguishable from control non-obese mice
[3]; day 29, both doses
  insulin resistance in ITT: insulin resistance had decreased
[3]; end of treatment
  serum proinsulin:insulin ratio: normalization of the serum proinsulin:insulin ratio
[3]; islets from HFD mice treated in vivo, glucose/GLP-1
  proinsulin secretion by islets ex vivo: reduced in a dose-dependent manner
[3]; islets from HFDIO mice treated in vivo
  islet expression of anti-oxidant genes and Nos2: further increased expression of anti-oxidant genes and suppressed Nos2
[3]; islets from obese mice treated for 30 days
  insulin secretion in response to glucose by islets ex vivo: correction of insulin hyper-secretion in response to glucose
[3]; up to 100 μg/kg for up to 30 days
  pathology in skin, intestine or liver: no pathology was observed in the skin, intestine or liver
[4]
  time to almost complete clearance from serum: ≤ 60 min
